Laboratory results: patent publication US20220055989A1, “CONDENSED PYRROLES AS NOVEL BROMODOMAIN INHIBITORS” (ALBERT LUDWING UNIVERSITÄT FREIBURG, priority 2018, published 2022)

Experiments:
[1] = molecular target: T1, FALZ (Homo sapiens, UniProt Q12830); assay: Bromodomain assay % Ctrl determination FALZ; details: lower numbers indicate a stronger binding
T1 construct: T7 phage strains displaying bromodomains were grown in parallel; host or cells: T7 phage grown in E. coli host derived from BL21
Procedure: (§1) Compounds that bind the bromodomain prevent its binding to the immobilized ligand thus reducing the amount of protein captured. […] Hits are identified by measuring the amount of bromodomain captured in test versus control samples. Bromodomain assays for % Ctrl determination: T7 phage strains displaying bromodomains were grown in parallel in 24-well blocks in an E. coli host derived from the BL21 strain. E. coli were grown to log-phase and infected with T7 phage from a frozen stock (multiplicity of infection=0.4) and incubated with shaking at 32° C. until lysis (90-150 minutes). The lysates were centrifuged (5,000×g) and filtered (0.2 μm) to remove cell debris. […] The liganded beads were blocked with excess biotin and washed with blocking buffer (SeaBlock (Pierce), 1% BSA, 0.05% Tween 20, 1 mM DTT) to remove unbound ligand and to reduce non-specific phage binding. […] Test compounds were prepared as 1000× stocks in 100% DMSO and subsequently diluted 1:25 in monoethylene glycol (MEG). The compounds were then diluted directly into the assays such that the final concentrations of DMSO and MEG were 0.1% and 2.4%, respectively. All reactions were performed in polypropylene 384-well plates in a final volume of 0.02 ml. […] The bromodomain concentration in the eluates was measured by qPCR. […]

[2] = test system: TRIM33(PHD, Bromo); assay: Bromodomain assay % Ctrl determination TRIM33(PHD, Bromo); details: lower numbers indicate a stronger binding
Procedure: as §1

[3] = molecular target: T2, BRD4(1) (Homo sapiens, UniProt O60885); assay: Bromodomain assay % Ctrl determination BRD4(1); details: lower numbers indicate a stronger binding
T2 construct: BRD4-BD1 was expressed and purified as described previously; made in house
Procedure: as §1

[4] = molecular target: T3, ATAD2B (Homo sapiens, UniProt Q9ULI0); assay: Bromodomain assay % Ctrl determination ATAD2B; details: lower numbers indicate a stronger binding
T3 construct: T7 phage strains displaying bromodomains were grown in parallel; made in house; host or cells: T7 phage grown in an E. coli host derived from the BL21 strain
Procedure: as §1

[5] = molecular target: T4, BAZ2B (Homo sapiens, UniProt Q9UIF8); assay: Bromodomain assay % Ctrl determination BAZ2B; details: lower numbers indicate a stronger binding
T4 construct: T7 phage strains displaying bromodomains were grown in parallel; made in house; host or cells: T7 phage grown in an E. coli host derived from the BL21 strain
Procedure: as §1

[6] = molecular target: T5, WDR9(2) (Homo sapiens, UniProt Q9NSI6); assay: Bromodomain assay % Ctrl determination WDR9(2); details: lower numbers indicate a stronger binding
T5 construct: T7 phage strains displaying bromodomains were grown in parallel; host or cells: T7 phage grown in E. coli host derived from BL21
Procedure: as §1

[7] = molecular target: T6, BAZ2A (Homo sapiens, UniProt Q9UIF9); assay: Bromodomain assay % Ctrl determination BAZ2A; details: lower numbers indicate a stronger binding
T6 construct: T7 phage strains displaying bromodomains were grown in parallel; made in house; host or cells: T7 phage grown in an E. coli host derived from the BL21 strain
Procedure: as §1

[8] = molecular target: T7, PBRM1(5) (Homo sapiens, UniProt Q86U86); assay: Bromodomain assay % Ctrl determination PBRM1(5); details: lower numbers indicate a stronger binding
T7 construct: T7 phage strains displaying bromodomains were grown in parallel; host or cells: T7 phage grown in E. coli host derived from BL21
Procedure: as §1

[9] = molecular target: T8, BRD7 (Homo sapiens, UniProt Q9NPI1); assay: Bromodomain assay % Ctrl determination BRD7; details: lower numbers indicate a stronger binding
T8 construct: T7 phage strains displaying bromodomains were grown; host or cells: T7 phage in E. coli derived from BL21
T8 sequence (Q9NPI1 131-235 limits assumed): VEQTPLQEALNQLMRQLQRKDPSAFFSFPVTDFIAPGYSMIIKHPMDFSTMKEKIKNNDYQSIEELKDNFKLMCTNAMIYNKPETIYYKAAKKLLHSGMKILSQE
Procedure: as §1

[10] = molecular target: T9, BRD3(1) (Homo sapiens, UniProt Q15059); assay: Bromodomain assay % Ctrl determination BRD3(1); details: lower numbers indicate a stronger binding
T9 construct: T7 phage strains displaying bromodomains were grown in parallel; made in house; host or cells: T7 phage grown in an E. coli host derived from the BL21 strain
Procedure: as §1

[11] = molecular target: T10, PCAF (Homo sapiens, UniProt Q92831); assay: BROMOscan Kd determination PCAF; type: binding
T10 construct: T7 phage strains displaying bromodomains were grown in parallel; host or cells: T7 phage grown in E. coli host derived from BL21
Procedure: (§2) Bromodomain profiling was carried out on the basis of BROMOscan™. This platform accounted for the indirect determination of the dissociation constants between 19 bromodomains and the compound of formula (13), by binding competition against a reference immobilized ligand. Compounds that bind the bromodomain prevent its binding to the immobilized ligand thus reducing the amount of protein captured. […] Hits are identified by measuring the amount of bromodomain captured in test versus control samples. Bromodomain assays for Kd determination: T7 phage strains displaying bromodomains were grown in parallel in 24-well blocks in an E. coli host derived from the BL21 strain. E. coli were grown to log-phase and infected with T7 phage from a frozen stock (multiplicity of infection=0.4) and incubated with shaking at 32° C. until lysis (90-150 minutes). The lysates were centrifuged (5,000×g) and filtered (0.2 μm) to remove cell debris. […] Kds were determined using an 11-point 3-fold compound dilution series with one DMSO control point. […] The bromodomain concentration in the eluates was measured by qPCR. […] Most Kds were determined using a compound top concentration=10,000 nM. […] Binding Constants (Kds): Binding constants (Kds) were calculated with a standard dose-response curve using the Hill equation: The Hill Slope was set to −1. […]

[12] = molecular target: T3, ATAD2B; assay: BROMOscan Kd determination ATAD2B; type: binding
Procedure: as §2

[13] = molecular target: T11, BRD4(1, 2) (Homo sapiens, UniProt O60885); assay: BROMOscan Kd determination BRD4(1, 2); type: binding
T11 construct: T7 phage strains displaying bromodomains were grown in parallel; made in house; host or cells: T7 phage grown in an E. coli host derived from the BL21 strain
Procedure: as §2

[14] = molecular target: T12, TAF1(2) (Homo sapiens, UniProt P21675); assay: BROMOscan Kd determination TAF1(2); type: binding
T12 construct: FALZ, PBRM1-BD2, BPRM1-BDS, TAF1-BD2, TAF1L-BD2; host or cells: T7 phage grown in E. coli host derived from BL21
Procedure: as §2

[15] = molecular target: T13, TRIM24 (Bromo.) (Homo sapiens, UniProt O15164); assay: BROMOscan Kd determination TRIM24 (Bromo.); type: binding
T13 construct: T7 phage strains displaying bromodomains were grown in parallel; host or cells: T7 phage grown in E. coli host derived from BL21
Procedure: as §2

[16] = molecular target: T14, BRD2(1, 2) (Homo sapiens, UniProt P25440); assay: BROMOscan Kd determination BRD2(1, 2); type: binding
T14 construct: T7 phage strains displaying bromodomains were grown in parallel; made in house; host or cells: T7 phage grown in an E. coli host derived from the BL21 strain
Procedure: as §2

[17] = molecular target: T6, BAZ2A; assay: BROMOscan Kd determination BAZ2A; type: binding
Procedure: as §2

T3 sequence (Q9ULI0 951-1066 limits assumed): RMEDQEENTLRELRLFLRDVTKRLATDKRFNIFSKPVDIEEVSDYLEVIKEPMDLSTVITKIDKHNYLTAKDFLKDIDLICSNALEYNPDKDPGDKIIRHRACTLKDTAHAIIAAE
T6 sequence (Q9UIF9 1793-1897 limits assumed): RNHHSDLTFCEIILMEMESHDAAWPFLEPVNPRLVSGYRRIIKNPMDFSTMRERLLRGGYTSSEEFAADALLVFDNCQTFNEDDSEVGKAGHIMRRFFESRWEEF
T13 sequence (O15164 899-1004 limits assumed): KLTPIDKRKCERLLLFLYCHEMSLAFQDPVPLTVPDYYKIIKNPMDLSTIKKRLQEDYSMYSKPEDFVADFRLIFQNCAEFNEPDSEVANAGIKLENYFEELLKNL
T12 sequence (P21675 1519-1628 limits assumed): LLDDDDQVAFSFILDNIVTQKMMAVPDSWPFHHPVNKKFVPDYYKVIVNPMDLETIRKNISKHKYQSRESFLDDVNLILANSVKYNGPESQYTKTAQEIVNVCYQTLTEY
T4 sequence (Q9UIF8 2060-2164 limits assumed): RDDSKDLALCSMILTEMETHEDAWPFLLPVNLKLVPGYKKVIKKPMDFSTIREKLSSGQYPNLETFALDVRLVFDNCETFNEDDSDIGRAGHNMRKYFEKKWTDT
T5 sequence (Q9NSI6 1313-1418 limits assumed): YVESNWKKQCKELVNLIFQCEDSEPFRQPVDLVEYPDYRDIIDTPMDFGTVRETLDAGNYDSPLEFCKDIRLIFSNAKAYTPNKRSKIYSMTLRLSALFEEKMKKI
T14 sequence (P25440 71-455 limits assumed): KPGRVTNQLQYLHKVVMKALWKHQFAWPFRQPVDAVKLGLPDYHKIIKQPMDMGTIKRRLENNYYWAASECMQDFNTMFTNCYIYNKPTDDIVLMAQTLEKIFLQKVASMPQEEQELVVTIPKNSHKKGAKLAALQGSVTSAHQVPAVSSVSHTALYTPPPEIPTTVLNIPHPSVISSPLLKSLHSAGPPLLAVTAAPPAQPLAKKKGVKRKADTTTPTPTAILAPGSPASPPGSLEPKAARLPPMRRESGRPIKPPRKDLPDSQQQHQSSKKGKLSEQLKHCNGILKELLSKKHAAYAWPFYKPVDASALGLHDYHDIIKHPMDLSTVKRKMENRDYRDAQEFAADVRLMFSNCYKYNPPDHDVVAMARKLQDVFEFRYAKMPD
T10 sequence (Q92831 723-827 limits assumed): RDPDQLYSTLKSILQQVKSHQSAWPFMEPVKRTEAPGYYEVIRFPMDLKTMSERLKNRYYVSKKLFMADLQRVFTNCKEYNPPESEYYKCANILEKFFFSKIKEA
T9 sequence (Q15059 34-140 limits assumed): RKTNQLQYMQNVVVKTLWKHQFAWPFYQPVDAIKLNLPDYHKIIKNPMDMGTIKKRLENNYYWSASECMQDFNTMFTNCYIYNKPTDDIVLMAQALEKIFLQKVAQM
T7 sequence (Q86U86 653-763 limits assumed): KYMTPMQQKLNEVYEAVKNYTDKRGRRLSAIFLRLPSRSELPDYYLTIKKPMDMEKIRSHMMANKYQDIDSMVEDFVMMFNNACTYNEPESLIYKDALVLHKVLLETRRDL

| SMILES | % Ctrl @ 10 000 nM FALZ [1] | % Ctrl @ 10 000 nM TRIM33(PHD, Bromo) [2] | % Ctrl @ 10 000 nM BRD4(1) [3] | % Ctrl @ 10 000 nM ATAD2B [4] | % Ctrl @ 10 000 nM BAZ2B [5] | % Ctrl @ 10 000 nM WDR9(2) [6] | % Ctrl @ 10 000 nM BAZ2A [7] | % Ctrl @ 10 000 nM PBRM1(5) [8] | % Ctrl @ 10 000 nM BRD7 [9] | % Ctrl @ 10 000 nM BRD3(1) [10] | Kd [11] | Kd [12] | Kd [13] | Kd [14] | Kd [15] | Kd [16] | Kd [17] |
| --- | --- | --- | --- | --- | --- | --- | --- | --- | --- | --- | --- | --- | --- | --- | --- | --- | --- |
| COc1ccc(S(=O)(=O)N2CCOCC2)cc1NC(=O)c1[nH]c(C)c2c1CCCCC2=O [Compound 13, N-(2-methoxy-5-(morpholinosulfonyl)phenyl)-3-methyl-4-oxo-2,4,5,6,7,8-hexahydrocyclohepta[c]pyrrole-1-carboxamide] | 6.8 % Ctrl | 60 % Ctrl | 0 % Ctrl | 97 % Ctrl | 6.8 % Ctrl | 81 % Ctrl | 24 % Ctrl | 90 % Ctrl | 0 % Ctrl | 0.05 % Ctrl | – | – | – | – | – | – | – |
| Cc1[nH]c(-c2cc(N)ccc2Cl)c2c1C(=O)CCCC2 [Compound 23] | – | – | – | – | – | – | – | – | – | – | > 10000 nM | > 10000 nM | 160 nM | 4100 nM | 1400 nM | 84 nM | 1900 nM |
